Measurements from patent publication US11591324B2, “Retinoic acid receptor antagonists as chaperone-mediated autophagy modulators and uses thereof” (ALBERT EINSTEIN COLLEGE OF MEDICINE, priority 2013, dated 2023).
Starred links: 1 amine or outer side, 2 acyl side, 3 side chain; linkers in the order of their positions; H or OH if unused. Positions of bridges follow the written chain, without caps; N, C: chain ends. Non-standard residues stand in square brackets, D forms with d. Residues, ends and D or L forms follow the SMILES beside them. Chains are numbered I, II in the order given. Actinocin(9to1) = Cc1c2oc3c(C)ccc(C(=O)[*:1])c3nc-2c(C(=O)[*:2])c(N)c1=O; NMeV = CN[C@H](C(=O)O)C(C)C; Sar = CNCC(=O)O

Experiments:
[1] = system: chaperone-mediated autophagy (CMA); test: CMA reporter assay (photoactivable KFERQ-PA-mCherry1 reporter); type: cell-based, mouse; details: for CMA activity (fluorescent puncta per cell, CMA reporter): mouse fibroblasts, 20 μM
Source text: (§1) Autophagic measurements. […] Lysosomes from cultured cells were isolated by similar procedures but using instead discontinuous metrizamide/percoll gradients after rupture of the plasma membrane through nitrogen cavitation^33.
CMA reporter assay. The photoactivable CMA reporter was constructed by inserting a sequence of 21 amino acids of Ribonuclease A bearing the CMA-targeting motif in the N-terminus multicloning site of the photoactivable protein mCherry1 (PA-mCherry1)^30. […] All images were acquired with a high-resolution CCD camera after optical sectioning through the apotome. Images were prepared using Adobe Photoshop 6.0 software (Adobe Systems). Quantification was performed in individual frames after deconvolution and thresholding using ImageJ software (NIH) in a minimum of 50 cells.
Because the observed downregulation of macroautophagy upon RARα knock-down cannot explain the increase in lysosomal degradation observed in these cells (FIG. 1c), the effect of this intervention on CMA was measured. Activation of this selective autophagic pathway can be determined using a photoactivable (PA) reporter fused to the CMA-targeting motif (KFERQ-PA-mcherry1)^30. Activation of CMA favors mobilization of this artificial CMA substrate from the cytosol to lysosomes, which can be tracked as a change in the reporter fluorescence from a diffuse to a punctate pattern^30.

[2] = system: mouse fibroblasts transfected with α-synuclein; test: α-synuclein plus PQ proteotoxicity (viability, immunoblot); type: cell-based; details: pre-treatment 20 μM before 1 mM PQ
Source text: Maintained chronic oxidation is a common feature of aging and an aggravating factor in multiple degenerative disorders. To model the detrimental effect of oxidative stress on proteotoxicity and analyze the possible beneficial effect of enhancing CMA activity in these conditions, cells were transfected with α-synuclein, the protein that accumulates in the form of intracellular aggregates in Parkinson's disease (PD) and previously identified as a bonafide CMA substrate^9,10. Although mutations in this protein have been associated to the familial forms of the disease, in more than 98% of PD patients the protein that accumulates in the protein inclusions is wild type. Consequently, different intracellular factors and aggressors, including oxidative stress, have been proposed to contribute to the idiopathic forms of this pathology. […] Although the presence of α-synuclein alone was not toxic for these cells, the toxicity of a fixed concentration of PQ was clearly dependent on the concentration of this protein present in the cell. The concentration of PQ added to these cells was adjusted so that in cells expressing low levels of α-synuclein, its toxic effect was limited to no more than 20% reduction in cellular viability. […]

hRARα = target: T1, hRARα (Homo sapiens, UniProt P10276); test: RARα activity, RAR-responsive luciferase reporter; type: cell-based; details: for RARα antagonist activity (inhibition of ATRA-dependent luciferase): in combination with 100 nM ATRA
T1 construct: expressed in transfected cells; host or cells: mouse fibroblasts (NIH3T3)
Procedure: Measurement of RARα and RXR activity. A RAR-responsive luciferase construct was utilized to monitor the activity of RARα in cultured cells. Cells were co-transfected with pCMX-Gal-L-hRARα and a construct encoding the firefly luciferase reporter gene under the control of a minimal promoter and tandem repeats of the retinoic-acid response element (tk-px3-luc). Co-transfection with a renilla luciferase reporter plasmid was performed to control for efficiency of transfection. RXR activity was measured by similar procedures using co-transfection with pCMX-mRXR and tk-apoA1-luc. Compounds were added 24 h after transfection and 48 h later cells were lysed and assayed for luciferase activity using the Dual-Luciferase Reporter Assay System (Progmega). Luciferase values were normalized to the renilla luciferase reporter.
To determine the effect of these molecules on RAR signaling, cells were co-transfected cells with a plasmid coding for RAR fused to the Gal4 DNA-binding domain and a Gal4-dependent luciferase reporter.

RARα = target: T2, RARα (Mus musculus, UniProt P11416); test: RARα translocation to the nucleus; type: cell-based
T2 construct: endogenous in cells; host or cells: mouse fibroblasts (NIH3T3), inferred
T2 sequence (P11416 1-462): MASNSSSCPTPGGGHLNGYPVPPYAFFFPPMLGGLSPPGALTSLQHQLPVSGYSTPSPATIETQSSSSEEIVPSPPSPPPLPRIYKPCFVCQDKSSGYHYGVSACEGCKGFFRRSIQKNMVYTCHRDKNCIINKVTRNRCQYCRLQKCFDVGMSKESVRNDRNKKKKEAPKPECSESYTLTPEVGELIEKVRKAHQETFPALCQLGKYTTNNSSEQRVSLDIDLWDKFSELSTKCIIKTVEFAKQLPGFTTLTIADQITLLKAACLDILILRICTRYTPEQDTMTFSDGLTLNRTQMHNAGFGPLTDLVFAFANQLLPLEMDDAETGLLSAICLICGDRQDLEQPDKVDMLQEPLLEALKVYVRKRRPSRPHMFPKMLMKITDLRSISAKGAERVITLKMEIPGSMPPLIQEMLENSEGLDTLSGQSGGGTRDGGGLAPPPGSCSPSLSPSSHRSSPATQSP

[3] = system: chaperone-mediated autophagy (CMA); test: High content microscopy CMA assay (KFERQ-PS-dendra reporter); type: cell-based, mouse; details: for basal versus stress-induced CMA activation: presence or absence of serum
Procedure: CMA activity in mouse fibroblasts in culture was measured using a new version of a previously developed photoswitchable (PS) CMA fluorescent reporter^30 generated by addition of a CMA targeting motif to the PS-dendra protein (KFERQ-PS-dendra). Briefly, cells transduced with lentivirus carrying the reporter were photoactivated 24 h after transduction by exposure to a 3.5 mA (current constant), and 90V light emitting diode (LED: Norlux, 405 nm) for 9 min. Cells were plated in 96 well plates, subjected to the desired treatments and at the end of the experiment fixed in 4% paraformaldehyde. Images were captured with a high content microscope (Opperetta system, Perkin Elmer) and quantification was performed with the instrument software in a minimum of 200 cells or 9 fields.

macroautophagy (LC3-II) = test: Macroautophagy: LC3-II levels and flux (immunoblot, mCherry-GFP-LC3); type: cell-based; details: mouse fibroblasts; retinoid derivatives 20 μM
Source text: as §1
To directly analyze macroautophagy, a widely accepted assay was used to measure activity of this pathway based on the analysis of the intracellular levels and degradation of the lipid-conjugated form of the light chain protein type 3 (LC3-II), a constitutive component of autophagosomes^29. Steady-state levels of LC3-II provide information on the amount of autophagosomes present in a cell at a given time, whereas the amount of LC3-II that accumulates upon blockage of lysosomal proteolysis allows measuring the efficiency of fusion and degradation of autophagic vacuoles by lysosomes (autophagic flux). […] Immunofluorescence for LC3 in these cells confirmed the presence of higher content of LC3-positive vesicles in the cells defective for RARα. These vesicles were confirmed to be autophagosomes using a double tagged form of LC3 (mCherry-GPF-LC3) that due to quenching of GFP fluorescence at low pH highlights autophagosomes in yellow and lysosomes in red. […] An increase in autophagosome content can result from increased formation of these organelles (autophagosome induction) or from reduced clearance of autophagosomes by lysosomes. To differentiate between both possibilities, the autophagic flux was compared in control and RARα (−) cells.

[4] = system: mouse fibroblasts (NIH3T3); test: Intracellular protein degradation (metabolic labeling, pulse chase)
LAMP-2A = LAMP-2A mRNA levels (quantitative real time PCR)

T1 sequence (P10276 with tags, fused parts or gaps limits assumed): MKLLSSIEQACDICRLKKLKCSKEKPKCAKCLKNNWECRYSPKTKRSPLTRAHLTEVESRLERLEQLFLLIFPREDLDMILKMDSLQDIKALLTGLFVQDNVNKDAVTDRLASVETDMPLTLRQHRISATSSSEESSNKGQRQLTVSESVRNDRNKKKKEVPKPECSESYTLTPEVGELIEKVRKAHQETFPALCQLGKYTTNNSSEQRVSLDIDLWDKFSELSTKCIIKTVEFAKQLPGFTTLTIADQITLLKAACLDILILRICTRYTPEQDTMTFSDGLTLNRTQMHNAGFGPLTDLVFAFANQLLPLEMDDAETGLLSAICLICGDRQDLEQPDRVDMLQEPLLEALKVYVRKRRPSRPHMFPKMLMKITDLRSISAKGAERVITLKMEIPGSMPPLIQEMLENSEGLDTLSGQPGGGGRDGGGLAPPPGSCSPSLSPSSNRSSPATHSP

In the case of `Cc1ccc(C2=Nc3ccc(Cl)cc3OC2)cc1` [AR7], the “CMA activity (fluorescent puncta per cell, CMA reporter)” value ([1]; presence of serum) is reported as “marked activation of CMA activity”, the “cellular viability of α-synuclein-transfected cells treated with PQ” value [2] is reported as “significant increases in cellular viability” and the “RARα antagonist activity (inhibition of ATRA-dependent luciferase)” value (hRARα) is reported as “among the most potent antagonist compounds in the library”. The “RARα relocation to the nucleus” value (RARα) was “sufficient to stimulate some relocation of cytosolic RARα to the nucleus”, the “basal versus stress-induced CMA activation” value [3] was “only activated basal CMA” and the “macroautophagy: LC3 steady state levels and lysosomal flux” value (macroautophagy (LC3-II)) was “absence of effect on other autophagic pathways”.
In the case of `CC1=C(/C=C/C(C)=C/C=C/C(C)=C/C(=O)O)C(C)(C)CCC1` [ATRA, all-trans-retinoic acid], the “protein degradation in response to prolonged serum removal” value ([4]; 40 μM ATRA, absence of serum) is reported as “significantly reduced the increase in protein degradation”, the “lysosomal degradation (sensitive to inhibitors of lysosomal proteolysis)” value ([4]; 40 μM ATRA, basal and inducible) is reported as “both basal and inducible lysosomal degradation were significantly compromised” and the “total rates of protein degradation, basal” value ([4]; 40 μM ATRA, presence of serum) is reported as “did not affect total rates of protein degradation under basal conditions”. The “inhibitory effect on autophagic degradation of cytosolic proteins in RARα (−) cells” value ([4]; ATRA, RARα knock-down) was “still detectable when RARα (−) cells were supplemented with ATRA”, the “basal CMA” value ([1]; ATRA treatment, presence of serum) was “did not have a noticeable effect on basal CMA” and the “activation of CMA in response to serum removal” value ([1]; ATRA treatment, serum removal) was “significantly reduced the activation of this pathway in response to serum removal”. For the same molecule, the “effect on CMA activity in RARα (−) cells” value ([1]; RARα knock-down mouse fibroblasts) was “no longer inhibited CMA activity in RARα (−) cells”, the “LAMP-2A mRNA levels, serum deprived” value (LAMP-2A; ATRA added to cells deprived of serum) was “significant decrease in LAMP-2A mRNA” and the “LAMP-2A mRNA levels, basal” value (LAMP-2A; ATRA, basal conditions) was “No changes in LAMP-2A mRNA levels”. For the same molecule, the “RARα agonist activity (luciferase)” value (hRARα; compound alone) was “dose-dependent activation” and the “macroautophagy: LC3 steady state levels and lysosomal flux” value (macroautophagy (LC3-II)) was “no significant changes in steady state levels of LC3 or in its lysosomal flux”.
`Cc1c2oc3c(C)ccc(C(=O)N[C@@H]4C(=O)N[C@H](C(C)C)C(=O)N5CCC[C@H]5C(=O)N(C)CC(=O)N(C)[C@@H](C(C)C)C(=O)O[C@@H]4C)c3nc-2c(C(=O)N[C@@H]2C(=O)N[C@H](C(C)C)C(=O)N3CCC[C@H]3C(=O)N(C)CC(=O)N(C)[C@@H](C(C)C)C(=O)O[C@@H]2C)c(N)c1=O` [Actinomycin D] (I: T[dV]P[Sar][NMeV] / II: T[dV]P[Sar][NMeV]; ester I:1-I:C, II:1-II:C; linker I:N-II:N via Actinocin(9to1)) was tested, and the “stimulatory effect of AR7 on CMA under transcriptional repression” value ([1]; AR7 plus Actinomycin D) was “partially reduced the stimulatory effect of AR7 on CMA”.
With `CC1(C)CC=C(c2cnc3ccccc3c2)c2cc(C(=O)Nc3ccc(C(=O)O)cc3)ccc21` [BMS614] the “CMA activity (fluorescent puncta per cell, CMA reporter)” value ([1]; presence of serum) was “also enhanced CMA activity” and the “macroautophagy: LC3 steady state levels and lysosomal flux” value (macroautophagy (LC3-II)) was “inhibited macroautophagy”.
With `CC1=CC(=Cc2ccc(C(=O)NC(=N)N)cc2)CC(C)(C)C1` [GR1, N-[4-(3,5,5-trimethyl-cyclohex-2-enylidenemethyl)-benzoyl]-guanidine] the “CMA activity (fluorescent puncta per cell, CMA reporter)” value ([1]; presence of serum) was “marked activation of CMA activity” and the “macroautophagy: LC3 steady state levels and lysosomal flux” value (macroautophagy (LC3-II)) was “absence of effect on other autophagic pathways”.
`CC1=CC(=Cc2ccc(C(=O)NC(=N)N)cc2)CCC1` [GR2, N-[4-(3-methyl-cyclohex-2-enylidenemethyl)-benzoyl]-guanidine] was tested, and the “CMA activity (fluorescent puncta per cell, CMA reporter)” value ([1]; presence of serum) was “marked activation of CMA activity”, the “RARα antagonist activity (inhibition of ATRA-dependent luciferase)” value (hRARα) was “among the most potent antagonist compounds in the library” and the “macroautophagy: LC3 steady state levels and lysosomal flux” value (macroautophagy (LC3-II)) was “absence of effect on other autophagic pathways”.
For `Clc1ccc2c(c1)OCC(c1ccc(-c3ccccc3)cc1)=N2` [QX39], the “CMA activation potency relative to AR7” value ([3]; cultured cells, photoactivatable CMA reporter) was 2-3 fold and the “basal versus stress-induced CMA activation” value [3] was “activated both basal and stress-induced CMA”.
